Data on 26 compounds can be found in patent US20020091124A1, “2-acyl indole derivatives and their use as antitumor agents” (priority 2000, published 2002).

In series [1] the test system is human cervical carcinoma cell line KB/HeLa. Put plainly: XTT cytotoxicity test, KB/HeLa. It is filed as cell-based.
The next series deals with T1, bovine brain tubulin.
T1 construct: The tubulin used in the assay was isolated from bovine brain using cycles of polymerization and depolymerization
Put plainly: Bovine tubulin polymerization assay. It is filed as biochemical. The settings on record: inhibition of tubulin polymerization; read-out: Tubulin-hemmung/ IC50. Here is the method:
In an in vitro test, selected compounds were tested for inhibition of polymerization of bovine brain. In this test, tubulin purified by cycles of polymerization and depolymerization, polymerization being initiated by addition of GTP and heating, is used.
The tubulin used in the assay was isolated from bovine brain using cycles of polymerization and depolymerization. […] The appropriate amount of test substance, dissolved in 100% DMSO, is pipetted to this mixture. 10 μl of purified bovine tubulin (50-60 μg of tubulin per well) are then added. […] 200 μl/well of decolorizing solution (25 mM NaOH, 50% ethanol, 0.05 mM EDTA) are finally added using a pipette. Following a 20 minute incubation at room temperature on a shaker (400 rpm), the absorption of 600 nm [sic] is measured in a photometer. What is calculated is the inhibition in % based on the 100% value of a positive control (which contains no test substance), and/or, if a concentration/activity curve is plotted, the lC50 value.

Another series deals with RKO p21 cells. Put plainly: RKOp21 model, XTT assay. Type of series: cell-based. To be noted: Homo sapiens; Table 2; read-out: RKP p21 induced IC50. An excerpt: The model used for examining the cell cycle-specific action was the RKOp21 cell system (M. Schmidt et al. Oncogene19(20):2423-9, 2000). RKO is a human colon carcinoma line in which the cell cycle inhibitor p21^wafl is expressed induced by the ecdysone expression system and leads to an arrest of the cell cycle specifically in G1 and G2. Nonspecific substances inhibit proliferation independently of whether the RKO cell is arrested in G1 or G2 or not. In contrast, cell cycle-specific substances, such as, for example, tubulin inhibitors, are only cytotoxic if the cells are not arrested and the cell cycle is in progress. […] This underlines the arrest of the cell cycle in […] already found in the FACS analyses, and a cell cycle-specific action of the compounds tested.
The assay is carried out in 96-well plates. […] Comparison of the activity on induced and non-induced cells allows conclusions to be drawn about the mechanism of action (cell cycle specificity) of the therapeutics. Non-induced [sic] cells are sown at a cell count which is about four times higher than that of non-induced cells since, compared to non-induced cells, there is no further division during the assay (2×10^4 cells/well induced, about 0.6×10^4 cells/well not induced). The controls are untreated cells (+/− induction). Induction is carried out using 3 μM of muristerone A. On day 1, the cells are plated (+/− muristerone A) and incubated at 37° C. for 24 h. On day 2, the test substance is added (control DMSO) and incubation at 37° C. is continued for another 48 h, after which a standard XTT assay is carried out.
Background: Formazan colour is commonly taken as a measure of viable cells.

The next series concerns rat glioma cell line C6. Nature of the series: XTT cytotoxicity test, C6. To be noted: 45 h, read-out: IC50 C6.
Series [2] has as its system human glioma cell line U118. Nature of the series: XTT cytotoxicity test, U118. The settings on record: 45 h, read-out: IC50 U118.
Series [3] has as its system human glioma cell line U373. Nature of the series: XTT cytotoxicity test, U373. To be noted: U373 MG, 45 h, read-out: IC50 U373.
Series [4] deals with human glioma cell line A-172. Nature of the series: XTT cytotoxicity test, A-172. The settings on record: A 172, 45 h, read-out: IC50 A-172.
Series [5] relates to human glioblastoma cell line U373. Nature of the series: Cell cycle analysis by FACS. To be noted: U373, treated 24 h, FIG. 2. A general note: In flow cytometry, cells or beads pass a laser one at a time.
Where [6] appears, read: read-out: Zytotoxizität KB/HeLa IC50.
Setting [7] is: XTT test, 45 h incubation, read-out: IC50 KB/HeLa.

SMILES strings stand for the structures. Where two headings read alike, the source gives them in different places.

In the case of `COc1ccc2[nH]c(C(=O)c3cccc(OC(=O)CCO)c3)cc2c1` [Example D-81756], the IC50 in series [1] (setting [6]) turned out to be 0.093 µg/mL; in the series on bovine brain tubulin it was 850 nM.
As for `COc1ccc2[nH]c(C(=O)c3cccs3)cc2c1` [Example D-70438], the IC50 in the series with bovine brain tubulin was 2700 nM.
Turning to `COc1ccc2[nH]c(C(=O)c3cccc(N)c3)cc2c1` [Example D-81167, 5-methoxy-1H-2-indolyl(3-aminophenyl)-1-methanone], the results for the IC50 (in series [1] (setting [6]); in the series with bovine brain tubulin) were 0.089 µg/mL and 990 nM, respectively.
In the same order, the values of `COc1ccc2[nH]c(C(=O)c3cccc(OC(F)(F)F)c3)cc2c1` [Example D-81194] are 0.086 µg/mL and 1740 nM.
Take `COc1ccc(C(=O)c2cc3cc(OC)ccc3[nH]2)c(OC)c1` [Example D-68172, 5-methoxy-1H-2-indolyl(2,4-dimethoxyphenyl)-1-methanone]: the IC50 was 107 nM in series [1] (setting [7]); under 10000 nM in the series on bovine brain tubulin; 136 nM in the series on RKO p21 cells; 180 nM with rat glioma cell line C6; 119 nM in series [2]; 75 nM in series [3]. Moreover, the IC50 in series [4] turned out to be 330 nM.
In the case of `COc1ccc2[nH]c(C(=O)c3ccccc3OC)cc2c1` [Example D-68143, 5-methoxy-1H-2-indolyl(2-methoxyphenyl)-1-methanone], the IC50 in series [1] (setting [7]) worked out at 35 nM; with bovine brain tubulin it was 2120 nM; in the series with RKO p21 cells it was 28 nM; in the series on rat glioma cell line C6 it was 98 nM; in [2], 23 nM; in [3], 29 nM. In series [4], the IC50 is 73 nM.
Regarding `COc1ccc2[nH]c(C(=O)c3cccc4ccccc34)cc2c1` [Example D-68213, 5-methoxy-1H-2-indolyl(1-naphthalenyl)-1-methanone], the IC50 was about 0.1 µg/mL in series [1] (setting [6]) and 2930 nM in the series with bovine brain tubulin.
As to `CC[C@]1(O)C[C@H]2CN(CCc3c([nH]c4ccccc34)[C@@](C(=O)OC)(c3cc4c(cc3OC)N(C=O)[C@H]3[C@@](O)(C(=O)OC)[C@H](OC(C)=O)[C@]5(CC)C=CCN6CC[C@]43[C@@H]65)C2)C1` [Vincristin, Vincristine, reference compound], the IC50 with bovine brain tubulin came out at 90 nM.
Consider `COc1ccc2[nH]c(C(=O)c3cccc(F)c3)cc2c1` [Example D-81187], for which the IC50 stood at 390 nM in the series with bovine brain tubulin and 16.8 nM with RKO p21 cells.
Consider `COc1ccc2[nH]c(C(=O)c3ccccc3N)cc2c1` [Example D-70047, 5-methoxy-1H-2-indolyl(2-aminophenyl)-1-methanone], for which the IC50 in series [1] (setting [6]) is about 2 µg/mL; in the series on bovine brain tubulin it was 6680 nM.
In the same order, the values of `COc1ccc2[nH]c(C(=O)c3cccc(C(F)(F)F)c3)cc2c1` [Example D-68901, 5-methoxy-1H-2-indolyl(3-trifluoromethylphenyl)-1-methanone] are about 0.01 µg/mL and 1460 nM.
For `COc1ccc2[nH]c(C(=O)c3ccccc3F)cc2c1` [Example D-68888, 2-fluorophenyl(5-methoxy-1H-2-indolyl)-1-methanone] the same measures were about 0.2 µg/mL and 1030 nM.
In the same order, the values of `COc1ccc2[nH]c(C(=O)c3ccc(Cl)cc3)cc2c1` [Example D-65500, 5-methoxy-1H-2-indolyl(4-chlorophenyl)-1-methanone] are about 1 µg/mL and 4980 nM.
Take `COc1ccccc1C(=O)c1cc2cc(C)ccc2[nH]1` [Example D-70289, 5-methyl-1H-2-indolyl(2-methoxyphenyl)-1-methanone]: the IC50 in [1] (setting [6]) is about 0.1 µg/mL; with bovine brain tubulin, 3540 nM.
`COc1cc(OC)cc(C(=O)c2cc3cc(C)ccc3[nH]2)c1` [Example D-70316, 5-methyl-1H-2-indolyl(3,5-dimethoxyphenyl)-1-methanone] showed a melting point of 141 to 142 °C. Also, in the series with bovine brain tubulin, the IC50 stood at 810 nM. For the same compound, the IC50 in the series on RKO p21 cells came to 17.9 nM.
With `O=C(O)c1ccc(C(=O)c2cc3ccccc3[nH]2)cc1` [Example 107, 4-(1H-2-indolylcarbonyl)-1-benzenecarboxylic acid], the melting point was over 220 °C.
For `COc1ccc2[nH]c(C(=O)c3cc(C)ccc3C)cc2c1` [Example D-68906, 5-methoxy-1H-2-indolyl(2,5-dimethylphenyl)-1-methanone], the results for the IC50 (in series [1] (setting [6]); in the series on bovine brain tubulin) were about 0.2 µg/mL and 5190 nM, respectively.
`COc1ccc2[nH]c(C(=O)c3ccc(Cl)c(Cl)c3)cc2c1` [Example D-70026, 5-methoxy-1H-2-indolyl(3,4-dichlorophenyl)-1-methanone] returned a melting point of 190 to 192 °C. In addition, the IC50 in [1] (setting [6]) is about 0.1 µg/mL. Besides, the IC50 in the series with bovine brain tubulin came out at 2490 nM.
Turning to `COc1ccc2[nH]c(C(=O)c3ccc(C)cc3)cc2c1` [Example D-68887, 5-methoxy-1H-2-indolyl(4-methylphenyl)-1-methanone], the IC50 in series [1] (setting [6]) is about 0.3 µg/mL; in the series with bovine brain tubulin, 1500 nM.
For `COc1ccc2[nH]c(C(=O)c3ccccc3C)cc2c1` [Example D-70038, 5-methoxy-1H-2-indolyl(2-methylphenyl)-1-methanone] the same measures were about 0.5 µg/mL and 4840 nM.
`COc1ccc2[nH]c(C(=O)c3cc(OC)c(OC)c(OC)c3)cc2c1` [Example D-68150, 5-methoxy-1H-2-indolyl(3,4,5-trimethoxyphenyl)-1-methanone]: the IC50 in series [1] (45 h, read-out: IC50 KB/HeLa) stood at 32 nM; in [1] (setting [6]) it was 32 nM; in the series with bovine brain tubulin, 10000 nM; in the series with RKO p21 cells it was 16.8 nM; with rat glioma cell line C6, 77 nM; in series [2], 19.4 nM. In addition, the IC50 in series [3] was 19.7 nM; in [4], 18.5 nM. The “cells in the metaphase of mitotic division (M-phase)” value in [5] is given as “concentration-dependent arrest of the cells in mitosis”.
`COc1ccc2[nH]c(C(=O)c3ccc(Br)cc3)cc2c1` [Example D-65499, 5-methoxy-1H-2-indolyl(4-bromophenyl)-1-methanone]: the IC50 in series [1] (setting [6]) was about 0.3 µg/mL; in the series with bovine brain tubulin it was 4300 nM.
For `COc1ccc2[nH]c(C(=O)c3cccc(SC(F)F)c3)cc2c1` [Example D-81196] the same measures were 0.134 µg/mL and 2050 nM.
As for `CC(=O)O[C@H]1C(=O)[C@@]2(C)[C@H]([C@H](OC(=O)c3ccccc3)[C@]3(O)C[C@H](OC(=O)[C@H](O)[C@@H](NC(=O)c4ccccc4)c4ccccc4)C(C)=C1C3(C)C)[C@]1(OC(C)=O)CO[C@@H]1C[C@@H]2O` [Taxol, reference compound], the IC50 in the series on RKO p21 cells came out at 7.8 ng/mL.
In the case of `COc1ccc2[nH]c(C(=O)c3cccc(O)c3)cc2c1` [Example D-81755], the IC50 in series [1] (setting [6]) came to 0.063 µg/mL; with bovine brain tubulin, 660 nM.
`NCOc1c(C(=O)c2ccccc2N)[nH]c2ccc(O)cc12` [Example D-70046]: the IC50 was about 2 µg/mL in series [1] (setting [6]) and 2440 nM with bovine brain tubulin.

The term melting point denotes the temperature, or range, at which the solid turns liquid.
